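Each compound was tested at five concentrations against cells in 96-well plates for 48 hours. Abbreviation: GI50, concentration required for 50% inhibition of growth.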 Activity calls are given as the source filed them. Rule as the data show it: active = GI50 up to about 1.1 µM and inactive = higher.
How the values were obtained:
Assay in all cases: NCI anticancer screen, dose series, 48 h
Hs-578T = system: Hs-578T
A498 = system: A498
UO-31 = system: UO-31
CCRF-CEM = system: CCRF-CEM
M14 = system: M14
PC-3 = system: PC-3
MOLT-4 = system: MOLT-4
MDA-MB-231 = system: MDA-MB-231
HOP-62 = system: HOP-62
SR = system: SR
NCI-H522 = system: NCI-H522
SF-268 = system: SF-268
CAKI-1 = system: CAKI-1
SK-MEL-5 = system: SK-MEL-5
HL-60 = system: HL-60
NCI-H460 = system: NCI-H460
HCT-116 = system: HCT-116
RPMI-8226 = system: RPMI-8226
UACC-62 = system: UACC-62
A549 = system: A549

Compound | GI50 (Hs-578T) | GI50 (A498) | GI50 (UO-31) | GI50 (CCRF-CEM) | GI50 (M14) | GI50 (PC-3) | GI50 (MOLT-4) | GI50 (MDA-MB-231) | GI50 (HOP-62) | GI50 (SR) | GI50 (NCI-H522) | GI50 (SF-268) | GI50 (CAKI-1) | GI50 (SK-MEL-5) | GI50 (HL-60) | GI50 (NCI-H460) | GI50 (HCT-116) | GI50 (RPMI-8226) | GI50 (UACC-62) | GI50 (A549)
O=C(O)c1ccc(CNCc2ccccc2)cc1 | > 100 µM (inactive) | > 100 µM (inactive) | > 100 µM (inactive) | > 100 µM (inactive) | > 100 µM (inactive) | > 100 µM (inactive) | > 100 µM (inactive) | > 100 µM (inactive) | > 100 µM (inactive) | > 100 µM (inactive) | > 100 µM (inactive) | > 100 µM (inactive) | > 100 µM (inactive) | > 100 µM (inactive) | > 100 µM (inactive) | > 100 µM (inactive) | > 100 µM (inactive) | > 100 µM (inactive) | > 100 µM (inactive) | > 100 µM (inactive)
O=C1C=CC2(C=C1)C[C@H](NC(=O)OCc1ccccc1)C(=O)O2 | 40.6 µM (inactive) | > 61.7 µM (inactive) | 20.2 µM (inactive) | 1.08 µM (active) | 15.5 µM (inactive) | 16.1 µM (inactive) | 1.8 µM (inactive) | 17.5 µM (inactive) | > 54.2 µM (inactive) | 1.08 µM (active) | 3.3 µM (inactive) | 17.2 µM (inactive) | 18 µM (inactive) | 21.9 µM (inactive) | 2.04 µM (inactive) | 24.3 µM (inactive) | 16 µM (inactive) | 3.6 µM (inactive) | 17.3 µM (inactive) | 38.1 µM (inactive)
Cc1cc(=O)n2nc(CSc3nnc(Sc4cc(O)ccc4O)s3)sc2n1 | 44.9 µM (inactive) | > 100 µM (inactive) | > 100 µM (inactive) | 22.6 µM (inactive) | 79.1 µM (inactive) | > 100 µM (inactive) | 24.4 µM (inactive) | 34.9 µM (inactive) | > 100 µM (inactive) | 28.3 µM (inactive) | 20.4 µM (inactive) | 54.6 µM (inactive) | > 100 µM (inactive) | 64.1 µM (inactive) | 26.4 µM (inactive) | > 100 µM (inactive) | 19.7 µM (inactive) | 24.5 µM (inactive) | 50 µM (inactive) | > 100 µM (inactive)
C=Cc1c(C)c(O)cc2c1-c1ccc(O)c(C)c1CC2 | 3.11 µM (inactive) | 11.6 µM (inactive) | 14.8 µM (inactive) | 12.5 µM (inactive) | 20.9 µM (inactive) | > 10 µM (inactive) | 11.6 µM (inactive) | 23.2 µM (inactive) | 26.7 µM (inactive) | 3.71 µM (inactive) | 19.4 µM (inactive) | 18.5 µM (inactive) | 13.9 µM (inactive) | 16 µM (inactive) | 15 µM (inactive) | 20.1 µM (inactive) | 14.1 µM (inactive) | 22.4 µM (inactive) | 7.5 µM (inactive) | 19 µM (inactive)
